Data on 26 compounds can be found in US8653096B2, “Chemokine receptor antagonists and methods of use thereof” (Millennium Pharmaceuticals, Inc., priority 2001, dated 2014).

This experiment addresses T1, RANTES/MIP-1α chemokine receptor (CCR1) in THP-1 cell membranes (Homo sapiens, UniProt P32246).
T1 construct: Membranes were prepared from THP-1 cells (ATCC #TIB202); host or cells: THP-1 cells (membrane preparation)
T1 sequence (P32246 1-355): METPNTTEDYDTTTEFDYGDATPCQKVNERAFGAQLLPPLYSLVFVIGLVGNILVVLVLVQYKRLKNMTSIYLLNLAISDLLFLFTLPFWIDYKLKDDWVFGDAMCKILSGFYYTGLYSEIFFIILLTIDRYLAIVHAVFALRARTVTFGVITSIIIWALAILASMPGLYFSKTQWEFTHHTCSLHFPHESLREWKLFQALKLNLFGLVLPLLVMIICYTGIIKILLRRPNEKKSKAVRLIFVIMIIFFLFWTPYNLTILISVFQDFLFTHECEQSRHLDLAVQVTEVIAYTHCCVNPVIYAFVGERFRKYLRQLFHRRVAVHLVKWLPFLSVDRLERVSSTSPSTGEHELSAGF
The experiment can be described thus: Receptor binding assay: 125I-RANTES or 125I-MIP-1α binding to THP-1 cell membranes. To be noted: inhibitor concentration required for 50% inhibition of specific binding; 125I-RANTES or 125I-MIP-1α as ligand, THP-1 cell membranes; read-out: IC50.
As to `CC(C)(O)c1ccc2c(c1)C(=CCCN1CC[C@@](O)(c3ccc(Cl)cc3)C(C)(C)C1)c1cccnc1CO2` [Example 503, R-4-(4-Chloro-phenyl)-1-{3-[7-(1-hydroxy-1-methyl-ethyl)-11H-10-oxa-1-aza-dibenzo[a,d]cyclohepten-5-ylidene]-propyl}-3,3-dimethyl-piperidin-4-ol], the IC50 is under 1000 nM.
Take `CC(=O)c1ccc2c(c1)C(=CCCN1CC[C@](O)(c3ccc(Cl)cc3)C(C)(C)C1)c1cccnc1CO2` [Example 504, S-1-(5-{3-[4-(4-Chloro-phenyl)-4-hydroxy-3,3-dimethyl-piperidin-1-yl]-propylidene}-5,11-dihydro-10-oxa-1-aza-dibenzo[a,d]cyclohepten-7-yl)-ethanone]: the IC50 is under 1000 nM.
With `CC(=O)c1ccc2c(c1)C(=CCCN1CC[C@@](O)(c3ccc(Cl)cc3)C(C)(C)C1)c1cccnc1CO2` [Example 505, R-1-(5-{3-[4-(4-Chloro-phenyl)-4-hydroxy-3,3-dimethyl-piperidin-1-yl]-propylidene}-5,11-dihydro-10-oxa-1-aza-dibenzo[a,d]cyclohepten-7-yl)-ethanone], the IC50 is under 1000 nM.
Take `CC(=O)OCCOc1ccc2c(c1)C(=CCCN1CCC(O)(c3ccc(Cl)cc3)C(C)(C)C1)c1cccnc1CO2` (centres unmarked) [Example 506, Acetic acid 2-(5-{3-[4-(4-chloro-phenyl)-4-hydroxy-3,3-dimethyl-piperidin-1-yl]-propylidene}-5,11-dihydro-10-oxa-1-aza-dibenzo[a,d]cyclohepten-7-yloxy)-ethyl ester]: the 50% inhibitory concentration (IC50) is under 1000 nM.
On to `CC1(C)CN(CCC=C2c3cc(OCCO)ccc3OCc3ncccc32)CCC1(O)c1ccc(Cl)cc1` (centres unmarked) [Example 507, 4-(4-Chloro-phenyl)-1-{3-[7-(2-hydroxy-ethoxy)-11H-10-oxa-1-aza-dibenzo[a,d]cyclohepten-5-ylidene]-propyl}-3,3-dimethyl-piperidin-4-ol], for which the IC50 is under 1000 nM.
In the case of `COCCOc1ccc2c(c1)C(=CCCN1CCC(O)(c3ccc(Cl)cc3)C(C)(C)C1)c1cccnc1CO2` (centres unmarked) [Example 508, 4-(4-Chloro-phenyl)-1-{3-[7-(2-methoxy-ethoxy)-11H-10-oxa-1-aza-dibenzo [a,d]cyclohepten-5-ylidene]-propyl}-3,3-dimethyl-piperidin-4-ol], the IC50 is under 1000 nM.
For `CC1(C)CN(CCC=C2c3cc(O)ccc3OCc3ncccc32)CCC1(O)c1ccc(Cl)cc1` (centres unmarked) [Example 509, 5-{3-[4-(4-Chloro-phenyl)-4-hydroxy-3,3-dimethyl-piperidin-1-yl]-propylidene}-5,11-dihydro-10-oxa-1-aza-dibenzo[a,d]cyclohepten-7-ol] the value was under 1000 nM; for `CCOC(=O)C(C)(C)Oc1ccc2c(c1)C(=CCCN1CCC(O)(c3ccc(Cl)cc3)C(C)(C)C1)c1cccnc1CO2` (centres unmarked) [Example 510, 2-(5-{3-[4-(4-Chloro-phenyl)-4-hydroxy-3,3-dimethyl-piperidin-1-yl]-propylidene}-5,11-dihydro-10-oxa-1-aza-dibenzo[a,d]cyclohepten-7-yloxy)-2-methyl-propionic acid ethyl ester], under 1000 nM.
As for `CC(C)(CO)Oc1ccc2c(c1)C(=CCCN1CCC(O)(c3ccc(Cl)cc3)C(C)(C)C1)c1cccnc1CO2` (centres unmarked) [Example 511, 4-(4-Chloro-phenyl)-1-{3-[7-(2-hydroxy-1,1-dimethyl-ethoxy)-11H-10-oxa-1-aza-dibenzo[a,d]cyclohepten-5-ylidene]-propyl}-3,3-dimethyl-piperidin-4-ol], the IC50 is under 1000 nM.
Regarding `CC(C)(Oc1ccc2c(c1)C(=CCCN1CCC(O)(c3ccc(Cl)cc3)C(C)(C)C1)c1cccnc1CO2)C(=O)O` (centres unmarked) [Example 512, 2-(5-{3-[4-(4-Chloro-phenyl)-4-hydroxy-3,3-dimethyl-piperidin-1-yl]-propylidene}-5,11-dihydro-10-oxa-1-aza-dibenzo[a,d]cyclohepten-7-yloxy)-2-methyl-propionic acid], the IC50 is under 1000 nM.
For the compound `CC(C)(Oc1ccc2c(c1)C(=CCCN1CCC(O)(c3ccc(Cl)cc3)C(C)(C)C1)c1cccnc1CO2)C(N)=O` (centres unmarked) [Example 513, 2-(5-{3-[4-(4-Chloro-phenyl)-4-hydroxy-3,3-dimethyl-piperidin-1-yl]-propylidene}-5,11-dihydro-10-oxa-1-aza-dibenzo[a,d]cyclohepten-7-yloxy)-2-methyl-propionamide], the IC50 was under 1000 nM.
The same measure for `COC(=O)COc1ccc2c(c1)C(=CCCN1CCC(O)(c3ccc(Cl)cc3)C(C)(C)C1)c1cccnc1CO2` (centres unmarked) [Example 514, (5-{3-[4-(4-Chloro-phenyl)-4-hydroxy-3,3-dimethyl-piperidin-1-yl]-propylidene}-5,11-dihydro-10-oxa-1-aza-dibenzo[a,d]cyclohepten-7-yloxy)-acetic acid methyl ester]: under 1000 nM; for `CC1(C)CN(CCC=C2c3cc(OCC(=O)O)ccc3OCc3ncccc32)CCC1(O)c1ccc(Cl)cc1` (centres unmarked) [Example 515, (5-{3-[4-(4-Chloro-phenyl)-4-hydroxy-3,3-dimethyl-piperidin-1-yl]-propylidene}-5,11-dihydro-10-oxa-1-aza-dibenzo[a,d]cyclohepten-7-yloxy)-acetic acid]: under 1000 nM; for `CC1(C)CN(CCC=C2c3cc(OCC(N)=O)ccc3OCc3ncccc32)CCC1(O)c1ccc(Cl)cc1` (centres unmarked) [Example 516, 2-(5-{3-[4-(4-Chloro-phenyl)-4-hydroxy-3,3-dimethyl-piperidin-1-yl]-propylidene}-5,11-dihydro-10-oxa-1-aza-dibenzo [a,d]cyclohepten-7-yloxy)-acetamide]: under 1000 nM.
In the case of `CC(C)(O)COc1ccc2c(c1)C(=CCCN1CCC(O)(c3ccc(Cl)cc3)C(C)(C)C1)c1cccnc1CO2` (centres unmarked) [Example 517, 4-(4-Chloro-phenyl)-1-{3-[7-(2-hydroxy-2-methyl-propoxy)-11H-10-oxa-1-aza-dibenzo[a,d]cyclohepten-5-ylidene]-propyl}-3,3-dimethyl-piperidin-4-ol], the IC50 is under 1000 nM.
As to `CC1(C)CN(CCC=C2c3cc(CC(O)CO)ccc3OCc3ncccc32)CCC1(O)c1ccc(Cl)cc1` (centres unmarked) [Example 518, 3-(5-{3-[4-(4-Chloro-phenyl)-4-hydroxy-3,3-dimethyl-piperidin-1-yl]-propylidene}-5,11-dihydro-10-oxa-1-aza-dibenzo[a, d]cyclohepten-7-yl)propane-1,2-diol], the IC50 is under 1000 nM.
As to `CC1CN(CCC=C2c3cc(C(C)(C)O)ccc3OCc3ncccc32)CCN1c1ccc(Cl)cc1` (centres unmarked) [Example 519, 2-(5-{3-[4-(4-Chloro-phenyl)-3-methyl-piperazin-1-yl]-propylidene}-5,11-dihydro-10-oxa-1-aza-dibenzo[a,d]cyclohepten-7-yl)-propan-2-ol], the IC50 was under 1000 nM.
For `CC(C)(O)c1ccc2c(c1)C(=CCCN1CCC3(CC1)OC(=O)Nc1ccc(Cl)cc13)c1cccnc1CO2` [Example 520], the IC50 is under 1000 nM.
For the compound `CC(C)(O)c1ccc2c(c1)C(=CCCN1CCC(C)(c3ccccc3Cl)CC1)c1cccnc1CO2` [Example 521, 2-(5-{3-[4-(2-Chloro-phenyl)-4-methyl-piperidin-1-yl]-propylidene}-5,11-dihydro-10-oxa-1-aza-dibenzo[a,d]cyclohepten-7-yl)-propan-2-ol], the IC50 is under 1000 nM.
Turning to `CC1CN(CCC=C2c3cc(OCC(C)(C)O)ccc3OCc3ncccc32)CCC1(O)c1ccc(Cl)cc1` (centres unmarked) [Example 522, 4-(4-Chloro-phenyl)-1-{3-[7-(2-hydroxy-2-methyl-propoxy)-11H-10-oxa-1-aza-dibenzo[a,d]cyclohepten-5-ylidene]-propyl}-3-methyl-piperidin-4-ol], the half-maximal inhibitory concentration (IC50) is under 1000 nM.
For `CC(C)(O)c1ccc2c(c1)C(=CCCN1CCC(O)(c3ccc(Cl)cc3)C(C)(C)C1)c1ccc[n+]([O-])c1CO2` (centres unmarked) [Example 523, 4-(4-Chloro-phenyl)-1-{3-[7-(1-hydroxy-1-methyl-ethyl)-1-oxy-11H-10-oxa-1-aza-dibenzo[a,d]cyclohepten-5-ylidene]-propyl}-3,3-dimethyl-piperidin-4-ol], the IC50 is under 1000 nM.
Regarding `CCN(Cc1ccc(Cl)cc1)[C@@H]1CCN(CCC=C2c3cc(C(C)(C)O)ccc3OCc3ncccc32)C1` [Example 524, (R)-2-[5-(3-{3-[(4-Chloro-benzyl)-ethyl-amino]-pyrrolidin-1-yl}-propylidene)-5,11-dihydro-10-oxa-1-aza-dibenzo[a,d]cyclohepten-7-yl]-propan-2-ol], the IC50 is under 1000 nM.
Turning to `CCN(c1ccc(Cl)cc1)[C@@H]1CCN(CCC=C2c3cc(C(C)(C)O)ccc3OCc3ncccc32)C1` [Example 525, (R)-2-[5-(3-{3-[(4-Chloro-phenyl)-ethyl-amino]-pyrrolidin-1-yl}-propylidene)-5,11-dihydro-10-oxa-1-aza-dibenzo[a,d]cyclohepten-7-yl]-propan-2-ol], the IC50 was under 20000 nM.
In the case of `CCN(Cc1ccc(Cl)cc1)[C@@H]1CCN(CCC=C2c3cc(C(=O)O)ccc3OCc3ncccc32)C1` [Example 527, (R)-5-(3-{3-[(4-Chloro-benzyl)-ethyl-amino]-pyrrolidin-1-yl}-propylidene)-5,11-dihydro-10-oxa-1-aza-dibenzo[a,d]cycloheptene-7-carboxylic acid], the IC50 is under 1000 nM.
In the case of `CCN(CCc1ccc(Cl)cc1)[C@@H]1CCN(CCC=C2c3cc(C(C)(C)O)ccc3OCc3ncccc32)C1` [Example 528], the IC50 is under 10000 nM.
For `CC(C)(O)c1ccc2c(c1)C(=CCCN1CC[C@H](OCc3ccc(Cl)cc3)C1)c1cccnc1CO2` [Example 529, (S)-2-(5-{3-[3-(4-Chloro-benzyloxy)-pyrrolidin-1-yl]-propylidene}-5,11-dihydro-10-oxa-1-aza-dibenzo[a,d]cyclohepten-7-yl)-propan-2-ol] the value was under 20000 nM.
